Legend:
Type in all cases: cell-based
[1] = biological target: T1, KRAS G12V protein in SW900 cells (Homo sapiens, UniProt P01116, G12V); test: KRAS degradation assay (Western Blot) in SW900 cells; conditions: 24 h
T1 construct: endogenous in cells; host or cells: SW900
Excerpt: (§1) Test Example 5: KRAS G12C, KRAS G12D, KRAS G12V, KRAS G13D, and KRAS WT (Expanded) Degradation Assays
(§2) The degradation effect of the compounds on KRAS was investigated on KRAS G12C mutant human non-small cell lung cancer cell NCI-H358, KRAS G12D mutant human metastatic pancreatic cancer cell AsPc-1, KRAS G12D mutant human lung cancer cell A427, KRAS G12V mutant human colorectal cancer cell SW620, KRAS G12V mutant human lung cancer cell SW900, KRAS G13D mutant human colorectal cancer epithelial cell DLD-1, and KRAS WT human gastric cancer cell MKN-1. The specific procedures were as follows: 0.95 mL of cells were seeded into each well of a 24-well cell culture plate to achieve a cell density of 5×10^5 cells/well; and the cell plate was incubated in an incubator at 37° C. with 5% CO2 overnight. Then 50 μL of the compound solution after dilution was added to each of the wells with the corresponding cells, so that the final concentration of the compound was in a range of 0.03-3000 nM. The final concentration of DMSO was 0.25%. After the compounds were added, the cell plate was incubated in an incubator at 37° C. with 5% CO2 for 24 h. The culture medium in the 24-well cell culture plate was then removed, and the plate was washed twice with 1×PBS (KeyGEN). 120 μL of RIPA (strong) lysis buffer (Beyotime) (supplemented with 1 mM phenylmethylsulfonyl fluoride, a protease inhibitor mixture (Beyotime), and a protease phosphatase inhibitor mixture (Beyotime)) was added to lyse adherent SW900 cells at the bottom of the cell culture plate. After the plate was left to stand on ice for 30 min, the protein lysate in each well was transferred to a 1.5 mL centrifuge tube and centrifuged at 15000 g for 20 min at 4° C. The cell lysate supernatants after centrifugation were cryopreserved in a refrigerator at −80° C. for later use.
(§3) After the samples of the cell lysate supernatants that had been prepared were thawed from the refrigerator at −80° C., the total protein concentrations of the cell lysates were determined using a BCA protein quantification kit (Tiangen). The total protein concentrations of the samples were then adjusted to 0.5 μg/μL with PBS and 5×SDS-PAGE protein loading buffer (Beyotime), and the samples were incubated in a water bath at 100° C. for 15 min. The samples were then incubated in an ice bath for 5 min and centrifuged at 14000 g for 1 min at 4° C., and the supernatants were mixed well as loading samples for the Western Blot assay. The samples were loaded into wells of a 10% precast gel (KeyGEN) with a loading volume of 10 μL (total protein: 5 μg), a sufficient Tris-MOPS-SDS running buffer (Adamas) was added, and then electrophoresis was performed at a constant voltage of 120 V for 55 min. After the electrophoresis, the proteins on the gel were transferred to PVDF membranes at a constant current of 250 mA for 55 min. After the membrane transfer, the PVDF membranes were incubated in 1× Quick Block blocking buffer (Beyotime)at room temperature for 30 min. After the blocking, the PVDF membranes were separately incubated at 4° C. overnight with the KRAS antibody (Abcam) diluted in a ratio of 1:1000 and the β-actin antibody (Abcam) diluted in a ratio of 1:2000 in 5% BSA as the diluent, and then washed with 1×TBST buffer (2.4 g of Tris, 8.8 g of NaCl, 1.5 mL of Tween 20, with pH adjusted to 7.4, with the volume brought to 1 L) 3 times for 10 min/time. The membranes were incubated with a secondary antibody (Abcam) diluted in 5% BSA at room temperature for 2 h, and then washed with 1×TBST buffer 3 times for 10 min/time. Finally, the membranes were incubated with Clarity Western ECL Substrate (BIO-RAD) for 5 min for luminescence and color development, and a ChemiScope 6200 Touch chemiluminescence imaging system (Clinx) was used for color development and protein mapping. Gray value analysis of the protein maps was performed using the chemiluminescence analysis software (Clinx). […]

[2] = tested on: KRAS G12D mutant human metastatic pancreatic cancer cell AsPc-1; test: 3D cell proliferation inhibition assay, AsPc-1; conditions: ASPC1, 168 h, 3D culture, 7 days, CTG
Excerpt: (§4) Test Example 6: 3D Cell Proliferation Inhibition Assay
(§5) The inhibitory effects of the compounds on 3D cell proliferation were investigated on KRAS G12C mutant human non-small cell lung cancer cell NCI-H358, KRAS G12D mutant human lung cancer cell A427, KRAS G12D mutant human gastric cancer cell AGS, KRAS G12D mutant human metastatic pancreatic cancer cell AsPc-1, KRAS G12V mutant human lung squamous carcinoma cell SW900, KRAS G12V mutant human colorectal cancer cell SW620, KRAS G13D mutant human colorectal cancer epithelial cell DLD-1, and KRAS WT human gastric cancer cell MKN1. The specific procedures were as follows:
(§6) 10 μL of each compound solution diluted in a gradient was added to corresponding wells of a 96-well low-adsorption microplate (PerkinElmer), so that the final concentrations of the test compounds in the reaction system were in a range of 10000-0.026 nM. The final concentration of DMSO was 0.2%. Then 90 µL of cells were correspondingly seeded into each well to achieve a cell density of 5×10^2 cells/well (the cell density of SW900 was 5×10^3 cells/well, and the cell density of MKN1 was 1×10^3 cells/well). In addition to test wells for the test compounds, both a DMSO control well and a medium control well were set, with the DMSO control well containing DMSO and cells and the medium well containing only a medium. After the sample loading, the 96-well low-adsorption microplate was incubated in an incubator at 37° C. with […] for 7 days. After 7 days, the microplate was taken out, and 100 μL of CTG reagent (Promega) was added to each well. The plate was incubated at room temperature for 60 m and read on a microplate reader EnVision by the chemiluminescence program. The inhibition rates of the compounds at each concentration were calculated using the formula for the percentage inhibition of cell proliferation: inhibition rate 00=(mean value of DMSO control group−single concentration reading value of compound)/(mean value of DMSO control group−mean value of medium control group)×100. Then non-linear curve fillings for logarithmic concentration-inhibition rate were performed by GraphPad Prism 8, and the IC50 values of the compounds were obtained (Table 6).

[3] = tested on: KRAS WT human gastric cancer cell MKN1; test: 3D cell proliferation inhibition assay, MKN1; conditions: MKN-1, 168 h, 3D culture, 7 days, CTG
Excerpt: as §4, §5, §6

[4] = tested on: KRAS G12V mutant human lung squamous carcinoma cell SW900; test: 3D cell proliferation inhibition assay, SW900; conditions: SW900, 168 h, 3D culture, 7 days, CTG
Excerpt: as §4, §5, §6

[5] = tested on: KRAS G13D mutant human colorectal cancer epithelial cell DLD-1; test: 3D cell proliferation inhibition assay, DLD-1; conditions: DLD-1, 168 h, 3D culture, 7 days, CTG
Excerpt: as §4, §5, §6

[6] = biological target: T2, KRAS G12V protein in SW620 cells (Homo sapiens, UniProt P01116, G12V); test: KRAS degradation assay (Western Blot) in SW620 cells; conditions: for DC50: 24 h; for Dmax: SW-620, 24 h
T2 construct: endogenous in cells; host or cells: SW620
T2 sequence (P01116 1-188 isoform P01116-2 G12V): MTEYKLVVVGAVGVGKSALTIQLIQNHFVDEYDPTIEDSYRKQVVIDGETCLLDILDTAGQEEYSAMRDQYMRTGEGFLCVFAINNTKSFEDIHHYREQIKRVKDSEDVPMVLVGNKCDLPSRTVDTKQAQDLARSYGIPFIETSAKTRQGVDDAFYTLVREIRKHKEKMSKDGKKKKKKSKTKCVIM
Excerpt: as §1, §2, §3

[7] = tested on: KRAS G12C mutant human non-small cell lung cancer cell NCI-H358; test: 3D cell proliferation inhibition assay, NCI-H358; conditions: NCI-H358, 168 h, 3D culture, 7 days, CTG
Excerpt: as §4, §5, §6

[8] = tested on: KRAS G12V mutant human colorectal cancer cell SW620; test: 3D cell proliferation inhibition assay, SW620; conditions: SW-620, 168 h, 3D culture, 7 days, CTG
Excerpt: as §4, §5, §6

T1 sequence (P01116 1-188 isoform P01116-2 G12V): as above

Row | Compound | DC50 [1] [nM] | Dmax [1] [%] | IC50 [2] [nM] | IC50 [3] [nM] | IC50 [4] [nM] | IC50 [5] [nM] | DC50 [6] [nM] | Dmax [6] [%] | IC50 [7] [nM] | IC50 [8] [nM]
1 | C#Cc1cccc2cc(O)cc(-c3ncc4c(N5CCC[C@@](C)(O)C5)nc(OCC5(CN6CCC(CCOCC7CCN(C(=O)c8ccc(OC)c(N9CCC(=O)NC9=O)c8)CC7)CC6)CC5)nc4c3F)c12 [Example 38, (R)-1-(5-(4-((2-(1-((1-(((7-(8-ethynyl-3-hydroxynaphthalen-1-yl)-8-fluoro-4-(3-hydroxy-3-methylpiperidin-1-yl)pyrido[4,3-d]pyrimidin-2-yl)oxy)methyl)cyclopropyl)methyl)piperidin-4-yl)ethoxy)methyl)piperidine-1-carbonyl)-2-methoxyphenyl)dihydropyrimidine-2,4(1H,3H)-dione] | ≤ 50 | 80 to 100 | 50 to 100 | ≤ 50 | 100 to 500 | – | – | – | – | –
2 | C#Cc1c(F)ccc2cc(O)cc(-c3ncc4c(N5CCC[C@@](C)(O)C5)nc(OCC(C)CN5CCN(CC6CCC7(CC6)CCN(C(=O)c6ccc(OC)c(N8CCC(=O)NC8=O)c6)CC7)CC5)nc4c3F)c12 (stereo partly drawn) [Example 86, 1-(5-(9-((4-(3-((7-(8-ethynyl-7-fluoro-3-hydroxynaphthalen-1-yl)-8-fluoro-4-((R)-3-hydroxy-3-methylpiperidin-1-yl)pyrido[4,3-d]pyrimidin-2-yl)oxy)-2-methylpropyl)piperazin-1-yl)methyl)-3-azaspiro[5.5]undecane-3-carbonyl)-2-methoxyphenyl)dihydropyrimidine-2,4(1H,3H)-dione] | – | – | 21.2 | 5.23 | – | 9.98 | 14.2 | 89.2 | 6.63 | 7.01
3 | C#Cc1c(F)ccc2cc(O)cc(-c3ncc4c(N5CCCC(F)(F)C5)nc(OCC5(CN6CCN(CC7CCC8(CC7)CCN(C(=O)c7ccc(OC)c(N9CCC(=O)NC9=O)c7)CC8)CC6)CC5)nc4c3F)c12 [Example 72, 1-(5-(9-((4-((1-(((4-(3,3-difluoropiperidin-1-yl)-7-(8-ethynyl-7-fluoro-3-hydroxynaphthalen-1-yl)-8-fluoropyrido[4,3-d]pyrimidin-2-yl)oxy)methyl)cyclopropyl)methyl)piperazin-1-yl)methyl)-3-azaspiro[5.5]undecane-3-carbonyl)-2-methoxyphenyl)dihydropyrimidine-2,4(1H,3H)-dione] | – | – | 176 | 102 | – | 54.3 | 11.8 | 95.2 | 32.9 | 22
4 | C#Cc1c(F)ccc2cc(O)cc(-c3ncc4c(N5CCCCCC5)nc(OCC5(CN6CCN(CC7CCC8(CC7)CCN(C(=O)c7ccc(C)c(N9CCC(=O)NC9=O)c7)CC8)CC6)CC5)nc4c3F)c12 [Example 37, 1-(5-(9-((4-((1-(((4-(azepan-1-yl)-7-(8-ethynyl-7-fluoro-3-hydroxynaphthalen-1-yl)-8-fluoropyrido[4,3-d]pyrimidin-2-yl)oxy)methyl)cyclopropyl)methyl)piperazin-1-yl)methyl)-3-azaspiro[5.5]undecane-3-carbonyl)-2-methylphenyl)dihydropyrimidine-2,4(1H,3H)-dione] | – | – | 100 to 500 | ≤ 50 | ≤ 50 | – | – | – | – | –
5 | C#Cc1c(F)ccc2cc(O)cc(-c3ncc4c(N5CCC[C@@](C)(O)C5)nc(OCC5(CN6CCN(CCC#CC7CCN(C(=O)c8ccc(Cl)c(N9CCC(=O)NC9=O)c8)CC7)CC6)CC5)nc4c3F)c12 [Example 43, (R)-1-(2-chloro-5-(4-(4-(4-((1-(((7-(8-ethynyl-7-fluoro-3-hydroxynaphthalen-1-yl)-8-fluoro-4-(3-hydroxy-3-methylpiperidin-1-yl)pyrido[4,3-d]pyrimidin-2-yl)oxy)methyl)cyclopropyl)methyl)piperazin-1-yl)but-1-yn-1-yl)piperidine-1-carbonyl)phenyl)dihydropyrimidine-2,4(1H,3H)-dione] | ≤ 50 | 80 to 100 | 50 to 100 | 50 to 100 | ≤ 50 | – | – | – | – | –
6 | C#Cc1c(F)ccc2cc(O)cc(-c3ccc4c(N5CCC[C@@](C)(O)C5)nc(OC[C@H](C)CN5CCN(CC6CCC7(CC6)CCN(C(=O)c6ccc(OC)c(N8CCC(=O)NC8=O)c6)CC7)CC5)nc4c3F)c12 [Example 60, 1-(5-(9-((4-((R)-3-((7-(8-ethynyl-7-fluoro-3-hydroxynaphthalen-1-yl)-8-fluoro-4-((R)-3-hydroxy-3-methylpiperidin-1-yl)quinazolin-2-yl)oxy)-2-methylpropyl)piperazin-1-yl)methyl)-3-azaspiro[5.5]undecane-3-carbonyl)-2-methoxyphenyl)dihydropyrimidine-2,4(1H,3H)-dione] | – | – | 60.8 | – | – | 57.5 | 4.25 | 99.1 | 24 | 15.4

— patent US20260167622A1, “PAN-KRAS DEGRADING AGENT, AND PREPARATION METHOD THEREFOR AND USE THEREOF” (LEADINGTAC PHARMACEUTICAL (SHAOXING) CO., LTD., priority 2022, published 2026)
